The values below come from PubChem BioAssay AID1259407 (Chemical Carcinogenesis Research Information System (CCRIS), 2018).

Activity calls are given as the source filed them. The rule behind the calls is not given here.

This data set deals with CCRIS mutagenicity, Ames/micronucleus/aberration tests. Put plainly: CCRIS mutagenicity studies.
Setting [1] is: Test System: AMES SALMONELLA TYPHIMURIUM, Strain/Indicator: TA98, Metabolic Activation: NONE, Method: PREINCUBATION
Where [2] appears, read: Test System: AMES SALMONELLA TYPHIMURIUM, Strain/Indicator: TA100, Metabolic Activation: NONE, Method: PREINCUBATION
Setting [3] is: Test System: MOUSE LYMPHOMA, Strain/Indicator: L5178Y (TK+/TK-), Metabolic Activation: NONE, Method: SUSPENSION/PLATE.
The mark [4] stands for this setting: Test System: Mouse lymphoma, Strain/Indicator: L5178Y (tk+/tk-), Metabolic Activation: Rat, Liver, S-9, Aroclor 1254, Method: Suspension/plate.

As for `CN`, the mutagenic call by setting is: (Test System: AMES SALMONELLA TYPHIMURIUM, Strain/Indicator: TA98, Metabolic Activation: NONE, Method: GAS EXPOSURE) “inactive; negative”; under setting [1], “inactive; negative”; (Test System: AMES SALMONELLA TYPHIMURIUM, Strain/Indicator: TA98, Metabolic Activation: RAT, LIVER, S-9, AROCLOR 1254 (5,15 OR 30%), Method: PREINCUBATION) “inactive; negative”; (Test System: AMES SALMONELLA TYPHIMURIUM, Strain/Indicator: TA98, Metabolic Activation: RAT, LIVER, S-9, SODIUM PHENOBARBITAL AND 5,6-BENZOFLAVONE, Method: GAS EXPOSURE) “inactive; negative”; (Test System: AMES SALMONELLA TYPHIMURIUM, Strain/Indicator: TA100, Metabolic Activation: NONE, Method: GAS EXPOSURE) “inactive; negative”; under setting [2], “inactive; negative”. Besides, the mutagenic call is “inactive; negative” (Test System: AMES SALMONELLA TYPHIMURIUM, Strain/Indicator: TA100, Metabolic Activation: RAT, LIVER, S-9, AROCLOR 1254 (5,15 OR 30%), Method: PREINCUBATION); “inactive; negative” (Test System: AMES SALMONELLA TYPHIMURIUM, Strain/Indicator: TA100, Metabolic Activation: RAT, LIVER, S-9, SODIUM PHENOBARBITAL AND 5,6-BENZOFLAVONE, Method: GAS EXPOSURE); “inactive; negative” (Test System: AMES SALMONELLA TYPHIMURIUM, Strain/Indicator: TA104, Metabolic Activation: NONE, Method: PREINCUBATION); “inactive; negative” (Test System: AMES SALMONELLA TYPHIMURIUM, Strain/Indicator: TA104, Metabolic Activation: RAT, LIVER, S-9, AROCLOR 1254 (5,15 OR 30%), Method: PREINCUBATION); “inactive; negative” (Test System: AMES SALMONELLA TYPHIMURIUM, Strain/Indicator: TA1535, Metabolic Activation: NONE, Method: GAS EXPOSURE); “inactive; negative” (Test System: AMES SALMONELLA TYPHIMURIUM, Strain/Indicator: TA1535, Metabolic Activation: RAT, LIVER, S-9, SODIUM PHENOBARBITAL AND 5,6-BENZOFLAVONE, Method: GAS EXPOSURE). The mutagenic call is, setting by setting: (Test System: AMES SALMONELLA TYPHIMURIUM, Strain/Indicator: TA1537, Metabolic Activation: NONE, Method: GAS EXPOSURE) “inactive; negative”; (Test System: AMES SALMONELLA TYPHIMURIUM, Strain/Indicator: TA1537, Metabolic Activation: RAT, LIVER, S-9, SODIUM PHENOBARBITAL AND 5,6-BENZOFLAVONE, Method: GAS EXPOSURE) “inactive; negative”; (Test System: E. COLI, Strain/Indicator: WP2UVRA, Metabolic Activation: NONE, Method: GAS EXPOSURE) “inactive; negative”; (Test System: E. COLI, Strain/Indicator: WP2UVRA, Metabolic Activation: RAT, LIVER, S-9, SODIUM PHENOBARBITAL AND 5,6-BENZOFLAVONE, Method: GAS EXPOSURE) “inactive; negative”; under setting [3], “active; positive”.

With `Clc1ccccc1C(c1ccccc1)C(c1ccccc1)c1ccccc1Cl` (stereo unspecified), the mutagenic call reads like this: (Test System: Mouse lymphoma, Strain/Indicator: L5178Y (tk+/tk-), Metabolic Activation: None, Method: Suspension/plate) “inactive; negative”; under setting [4], “active; equivocal (previous evaluation positive)”.

Regarding `[K+]`, the mutagenic call was “inactive; negative” (End Point: IN VIVO MICRONUCLEUS, Test System: BONE MARROW POLYCHROMATIC ERYTHROCYTES, Species: MOUSE, Strain/Sex: DDY/MALE, Route: IP); “active; positive (structural changes)” (End Point: In vitro chromosomal aberrations, Test System: Chinese hamster lung (CHL) cells, Metabolic Activation: None); “inactive; negative” (Test System: AMES SALMONELLA TYPHIMURIUM, Strain/Indicator: TA97, Metabolic Activation: HAMSTER, LIVER, S-9, AROCLOR 1254 (10 OR 30%), Method: PREINCUBATION); “inactive; negative” (Test System: AMES SALMONELLA TYPHIMURIUM, Strain/Indicator: TA97, Metabolic Activation: NONE, Method: PREINCUBATION); “inactive; negative” (Test System: AMES SALMONELLA TYPHIMURIUM, Strain/Indicator: TA97, Metabolic Activation: RAT, LIVER, S-9, AROCLOR 1254 (10 OR 30%), Method: PREINCUBATION); “inactive; negative” (Test System: AMES SALMONELLA TYPHIMURIUM, Strain/Indicator: TA98, Metabolic Activation: HAMSTER, LIVER, S-9, AROCLOR 1254 (10 OR 30%), Method: PREINCUBATION). For the same compound, the mutagenic call runs as follows: under setting [1], “inactive; negative”; (Test System: AMES SALMONELLA TYPHIMURIUM, Strain/Indicator: TA98, Metabolic Activation: RAT, LIVER, S-9, AROCLOR 1254 (10 OR 30%), Method: PREINCUBATION) “inactive; negative”; (Test System: AMES SALMONELLA TYPHIMURIUM, Strain/Indicator: TA100, Metabolic Activation: HAMSTER, LIVER, S-9, AROCLOR 1254 (10 OR 30%), Method: PREINCUBATION) “inactive; negative”; under setting [2], “inactive; negative”; (Test System: AMES SALMONELLA TYPHIMURIUM, Strain/Indicator: TA100, Metabolic Activation: RAT, LIVER, S-9, AROCLOR 1254 (10 OR 30%), Method: PREINCUBATION) “inactive; negative”; (Test System: AMES SALMONELLA TYPHIMURIUM, Strain/Indicator: TA1535, Metabolic Activation: HAMSTER, LIVER, S-9, AROCLOR 1254 (10 OR 30%), Method: PREINCUBATION) “inactive; negative”. In addition, the mutagenic call (Test System: AMES SALMONELLA TYPHIMURIUM, Strain/Indicator: TA1535, Metabolic Activation: NONE, Method: PREINCUBATION) was “inactive; negative” and the mutagenic call (Test System: AMES SALMONELLA TYPHIMURIUM, Strain/Indicator: TA1535, Metabolic Activation: RAT, LIVER, S-9, AROCLOR 1254 (10 OR 30%), Method: PREINCUBATION) is “inactive; negative”.

Take `Nc1n[nH]c(=S)s1`: the mutagenic call runs as follows: (Test System: AMES SALMONELLA TYPHIMURIUM, Strain/Indicator: TA98, Metabolic Activation: HAMSTER, LIVER, S-9, AROCLOR 1254, Method: STANDARD PLATE) “inactive; negative”; (Test System: AMES SALMONELLA TYPHIMURIUM, Strain/Indicator: TA98, Metabolic Activation: NONE, Method: STANDARD PLATE) “inactive; negative”; (Test System: AMES SALMONELLA TYPHIMURIUM, Strain/Indicator: TA98, Metabolic Activation: RAT, LIVER, S-9, AROCLOR 1254, Method: STANDARD PLATE) “inactive; negative”; (Test System: AMES SALMONELLA TYPHIMURIUM, Strain/Indicator: TA100, Metabolic Activation: HAMSTER, LIVER, S-9, AROCLOR 1254, Method: STANDARD PLATE) “inactive; negative”; (Test System: AMES SALMONELLA TYPHIMURIUM, Strain/Indicator: TA100, Metabolic Activation: NONE, Method: STANDARD PLATE) “inactive; negative”; (Test System: AMES SALMONELLA TYPHIMURIUM, Strain/Indicator: TA100, Metabolic Activation: RAT, LIVER, S-9, AROCLOR 1254, Method: STANDARD PLATE) “inactive; negative”. Also, the mutagenic call runs as follows: (Test System: AMES SALMONELLA TYPHIMURIUM, Strain/Indicator: TA1535, Metabolic Activation: HAMSTER, LIVER, S-9, AROCLOR 1254, Method: STANDARD PLATE) “inactive; negative”; (Test System: AMES SALMONELLA TYPHIMURIUM, Strain/Indicator: TA1535, Metabolic Activation: NONE, Method: STANDARD PLATE) “inactive; negative”; (Test System: AMES SALMONELLA TYPHIMURIUM, Strain/Indicator: TA1535, Metabolic Activation: RAT, LIVER, S-9, AROCLOR 1254, Method: STANDARD PLATE) “inactive; negative”; (Test System: AMES SALMONELLA TYPHIMURIUM, Strain/Indicator: TA1537, Metabolic Activation: HAMSTER, LIVER, S-9, AROCLOR 1254, Method: STANDARD PLATE) “inactive; negative”; (Test System: AMES SALMONELLA TYPHIMURIUM, Strain/Indicator: TA1537, Metabolic Activation: NONE, Method: STANDARD PLATE) “inactive; negative”; (Test System: AMES SALMONELLA TYPHIMURIUM, Strain/Indicator: TA1537, Metabolic Activation: RAT, LIVER, S-9, AROCLOR 1254, Method: STANDARD PLATE) “inactive; negative”. Further, the mutagenic call reads like this: (Test System: AMES SALMONELLA TYPHIMURIUM, Strain/Indicator: TA1538, Metabolic Activation: HAMSTER, LIVER, S-9, AROCLOR 1254, Method: STANDARD PLATE) “inactive; negative”; (Test System: AMES SALMONELLA TYPHIMURIUM, Strain/Indicator: TA1538, Metabolic Activation: NONE, Method: STANDARD PLATE) “inactive; negative”; (Test System: AMES SALMONELLA TYPHIMURIUM, Strain/Indicator: TA1538, Metabolic Activation: RAT, LIVER, S-9, AROCLOR 1254, Method: STANDARD PLATE) “inactive; negative”; under setting [3], “active; positive. reevaluation of results: positive”; under setting [4], “inactive; negative”.

For the compound `c1ccc2c(c1)-c1c3ccccc3cc3cc4ccccc4c-2c13`, under “Test System: HUMAN H1A1V2 CELLS, Strain/Indicator: TK LOCUS, Metabolic Activation: NONE, Method: SUSPENSION/PLATE”, the mutagenic call was “active; positive”.
